# ChEMBL document CHEMBL1201862, “PubChem BioAssay data set” (2004)
# Calls of active or inactive are those of the source.
# What was measured:
# Cytochrome P450 1A2 = biological target: T1, Cytochrome P450 1A2 (Homo sapiens, UniProt P05177);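 also: PubChem cytochrome P450 panel assay, CYP1A2 panel member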
# T1 sequence (P05177 whole entry): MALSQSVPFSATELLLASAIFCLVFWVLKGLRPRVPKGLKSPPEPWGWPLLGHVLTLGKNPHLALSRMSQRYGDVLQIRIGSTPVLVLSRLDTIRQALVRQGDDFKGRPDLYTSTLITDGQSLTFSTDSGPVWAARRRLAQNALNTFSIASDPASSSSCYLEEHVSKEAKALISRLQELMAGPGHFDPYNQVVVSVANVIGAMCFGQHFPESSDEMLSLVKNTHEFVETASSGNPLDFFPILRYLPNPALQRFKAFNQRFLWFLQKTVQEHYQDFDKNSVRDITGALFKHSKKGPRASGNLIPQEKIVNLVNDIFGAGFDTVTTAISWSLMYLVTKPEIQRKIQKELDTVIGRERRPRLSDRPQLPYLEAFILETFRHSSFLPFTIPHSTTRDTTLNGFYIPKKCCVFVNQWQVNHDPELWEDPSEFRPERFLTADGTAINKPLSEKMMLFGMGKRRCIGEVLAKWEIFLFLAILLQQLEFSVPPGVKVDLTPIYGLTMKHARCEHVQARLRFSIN
# Cytochrome P450 2C9 = Cytochrome P450 2C9 (Homo sapiens, UniProt P11712)
# Chain of Cytochrome P450 2C9 (P11712 whole entry, the tested form may be a part): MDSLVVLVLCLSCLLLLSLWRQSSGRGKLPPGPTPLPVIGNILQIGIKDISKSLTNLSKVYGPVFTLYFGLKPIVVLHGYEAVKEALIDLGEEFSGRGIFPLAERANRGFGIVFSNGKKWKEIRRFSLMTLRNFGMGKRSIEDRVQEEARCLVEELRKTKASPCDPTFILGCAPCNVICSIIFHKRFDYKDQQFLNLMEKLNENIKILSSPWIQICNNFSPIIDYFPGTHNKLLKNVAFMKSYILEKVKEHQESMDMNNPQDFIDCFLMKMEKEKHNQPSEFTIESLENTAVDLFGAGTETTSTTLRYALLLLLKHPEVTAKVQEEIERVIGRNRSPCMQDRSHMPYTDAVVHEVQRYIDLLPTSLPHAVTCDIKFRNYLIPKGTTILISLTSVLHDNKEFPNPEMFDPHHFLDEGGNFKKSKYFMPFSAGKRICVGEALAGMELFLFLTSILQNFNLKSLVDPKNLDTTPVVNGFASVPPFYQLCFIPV
# [1] = biological target: T2, RNA-binding protein pos-1 (Caenorhabditis elegans, UniProt G5EF15); assay: inhibitors of POS-1/mex-3 RNA binding, dose response, biochemical, fluorescence polarization (AID 1964);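 also: purified POS-1 fused to maltose binding protein made in E. coli; potency of compounds blocking POS-1 binding to fluorescent RNA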
# T2 sequence (G5EF15 whole entry): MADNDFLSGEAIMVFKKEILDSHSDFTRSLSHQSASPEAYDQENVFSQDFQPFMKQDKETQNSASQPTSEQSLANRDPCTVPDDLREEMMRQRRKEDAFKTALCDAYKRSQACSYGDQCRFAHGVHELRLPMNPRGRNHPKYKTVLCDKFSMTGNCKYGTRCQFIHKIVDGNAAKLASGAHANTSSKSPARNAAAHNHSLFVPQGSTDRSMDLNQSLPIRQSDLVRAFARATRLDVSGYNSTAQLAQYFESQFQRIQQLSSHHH
# [2] = biological target: T3, Zinc finger protein mex-5 (Caenorhabditis elegans, UniProt Q9XUB2); assay: MEX-5/TCR-2 RNA interaction inhibitors, dose response, biochemical, C. elegans, fluorescence polarization (AID 1960)
# T3 sequence (Q9XUB2 whole entry): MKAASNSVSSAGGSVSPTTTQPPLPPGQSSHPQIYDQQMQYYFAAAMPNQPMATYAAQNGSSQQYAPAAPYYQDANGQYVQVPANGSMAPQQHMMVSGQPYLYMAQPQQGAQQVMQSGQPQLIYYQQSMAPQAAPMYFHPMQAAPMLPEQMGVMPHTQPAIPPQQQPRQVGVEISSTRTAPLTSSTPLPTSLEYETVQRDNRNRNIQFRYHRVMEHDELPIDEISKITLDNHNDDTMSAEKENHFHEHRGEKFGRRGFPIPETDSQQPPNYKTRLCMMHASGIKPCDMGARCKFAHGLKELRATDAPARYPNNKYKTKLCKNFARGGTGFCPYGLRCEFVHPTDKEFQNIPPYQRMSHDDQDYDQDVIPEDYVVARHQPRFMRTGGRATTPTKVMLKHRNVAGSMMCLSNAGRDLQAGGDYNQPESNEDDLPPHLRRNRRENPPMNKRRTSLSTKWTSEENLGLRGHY
# Protein skinhead-1 = biological target: T4, Protein skinhead-1 (Caenorhabditis elegans, UniProt P34707); format: functional
# T4 sequence (P34707 whole entry): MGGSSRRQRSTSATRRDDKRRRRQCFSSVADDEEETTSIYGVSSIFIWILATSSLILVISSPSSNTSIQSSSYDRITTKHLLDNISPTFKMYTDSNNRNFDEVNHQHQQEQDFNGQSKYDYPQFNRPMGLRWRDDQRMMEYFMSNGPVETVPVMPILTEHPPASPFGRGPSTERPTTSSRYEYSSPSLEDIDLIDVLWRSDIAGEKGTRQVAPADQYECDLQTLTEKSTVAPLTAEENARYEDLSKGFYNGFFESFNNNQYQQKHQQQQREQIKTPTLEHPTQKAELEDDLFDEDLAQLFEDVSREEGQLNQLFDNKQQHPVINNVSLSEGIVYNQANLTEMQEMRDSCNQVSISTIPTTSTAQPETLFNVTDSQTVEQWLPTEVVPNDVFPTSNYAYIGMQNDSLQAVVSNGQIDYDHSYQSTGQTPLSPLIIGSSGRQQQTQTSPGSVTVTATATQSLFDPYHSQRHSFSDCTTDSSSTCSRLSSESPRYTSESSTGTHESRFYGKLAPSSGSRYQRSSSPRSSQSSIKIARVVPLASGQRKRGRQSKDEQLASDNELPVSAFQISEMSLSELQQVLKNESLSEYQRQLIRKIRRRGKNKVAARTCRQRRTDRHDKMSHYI
# [3] = biological target: FAD-linked sulfhydryl oxidase ALR (Homo sapiens, UniProt P55789); assay: inhibitors of human ALR sulfhydryl oxidase, dose response, biochemical, H2O2 detection, luminescence, cherry-pick (AID 493248)
# Chain of FAD-linked sulfhydryl oxidase ALR (P55789 whole entry): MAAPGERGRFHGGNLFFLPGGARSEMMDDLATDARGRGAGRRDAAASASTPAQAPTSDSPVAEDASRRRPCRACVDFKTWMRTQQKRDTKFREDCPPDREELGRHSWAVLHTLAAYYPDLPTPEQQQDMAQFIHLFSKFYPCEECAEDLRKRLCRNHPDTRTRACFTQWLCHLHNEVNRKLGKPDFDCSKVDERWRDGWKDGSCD
# [4] = Luminescence Cell-Based Dose Response HTS to Identify Activators of Luciferase Translation or Activity in H4 […] Cells. [Related pubchem assays: 1829 (Project Summary), 1814 (Primary HTS)]; format: functional
# H4 = assay: Luminescence Cell-Based Dose Response HTS to Identify Activators of 5'UTR Stem-Loop Driven Prion Protein mRNA Translation in H4 Neuroglioblastoma Cells. [Related pubchem assays: 1829 (Project Summary), 1814 (Primary HTS)]; format: functional; conditions: Homo sapiens
# Cytochrome P450 2C19 = Cytochrome P450 2C19 (Homo sapiens, UniProt P33261); assay: Cytochrome panel assay with activity outcomes. Panel member name: p450-cyp2c19 Compounds with AC50 equal or less than 10 uM are considered active; format: functional; conditions: read-out: AC50
# Chain of Cytochrome P450 2C19 (P33261 whole entry): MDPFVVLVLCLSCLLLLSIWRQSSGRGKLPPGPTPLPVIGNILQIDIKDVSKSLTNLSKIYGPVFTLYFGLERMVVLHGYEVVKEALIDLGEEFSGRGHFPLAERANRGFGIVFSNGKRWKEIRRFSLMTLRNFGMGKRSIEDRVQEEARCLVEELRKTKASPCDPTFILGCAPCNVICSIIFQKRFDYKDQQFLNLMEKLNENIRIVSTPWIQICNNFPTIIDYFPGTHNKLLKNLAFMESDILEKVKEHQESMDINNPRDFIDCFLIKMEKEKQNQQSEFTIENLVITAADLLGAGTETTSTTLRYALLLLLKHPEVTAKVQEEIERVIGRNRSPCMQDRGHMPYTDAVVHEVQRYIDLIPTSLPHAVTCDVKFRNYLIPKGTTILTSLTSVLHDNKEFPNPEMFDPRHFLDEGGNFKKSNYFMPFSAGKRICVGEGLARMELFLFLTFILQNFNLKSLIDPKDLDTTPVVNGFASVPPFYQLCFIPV
# [5] = tested on: Streptococcus sp. 'group A'; assay: growth inhibition of control SK(-) GAS strain, dose response, counter-screen for streptokinase expression inhibitor project, luminescence, kanamycin, BacTiterGlo, confirmation (AID 1900); format: functional, organism-based
# Streptokinase A = biological target: T5, Streptokinase A (Streptococcus pyogenes serotype M1, UniProt P10520); assay: S. pyogenes streptokinase expression inhibitors, potency, dose response, plasminogen activation absorbance, OD405 (AID 1914); format: functional, Streptococcus pyogenes M1 GAS;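 also: secreted streptokinase activity via plasminogen activation per viability signal from cell pellet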
# T5 sequence (P10520 whole entry): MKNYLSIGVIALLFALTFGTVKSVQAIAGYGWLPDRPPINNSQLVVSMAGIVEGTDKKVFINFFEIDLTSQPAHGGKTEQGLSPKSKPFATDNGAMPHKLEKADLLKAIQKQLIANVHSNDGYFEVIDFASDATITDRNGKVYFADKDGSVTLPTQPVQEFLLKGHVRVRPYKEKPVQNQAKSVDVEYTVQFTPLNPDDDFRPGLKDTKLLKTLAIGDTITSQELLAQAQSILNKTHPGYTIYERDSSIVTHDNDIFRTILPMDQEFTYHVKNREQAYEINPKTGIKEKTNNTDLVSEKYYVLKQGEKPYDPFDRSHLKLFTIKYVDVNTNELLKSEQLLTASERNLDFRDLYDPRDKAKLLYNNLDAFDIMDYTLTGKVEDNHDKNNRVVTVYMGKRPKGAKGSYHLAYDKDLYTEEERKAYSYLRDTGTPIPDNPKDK
# [6] = inhibitors of intracellular T. cruzi replication, confirmation, NIH3T3 host cells, beta-gal luminescence (AID 2044); format: functional, cell-based;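 also: intracellular parasites grown in NIH/3T3 mouse fibroblasts as host cells; luminescent beta-galactosidase reporter signal from transgenic T. cruzi replicating inside host cells; inhibitors lower the luminescence signal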
# [7] = cytotoxicity toward NIH3T3 fibroblasts, dose response, counter-screen, cell-based, ATP luminescence, mouse fibroblasts (AID 2010); format: functional;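 also: cells exposed to compound for about 90 hours before reading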
# Streptococcus = assay: Group A Streptococcus viability loss, dose response, counter-screen for streptokinase expression inhibitor project, luminescence, BacTiterGlo (AID 1915); format: functional, organism-based;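 also: potency for reduction of bacterial viability or growth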
# [8] = biological target: T6, Rac GTPase-activating protein 1 (Homo sapiens, UniProt Q9H0H5); assay: MgcRacGAP GTPase-activating activity inhibitors, confirmation, biochemical, ADP Hunter fluorescence, primary and confirmatory (AID 624330); format: functional
# T6 sequence (Q9H0H5 whole entry): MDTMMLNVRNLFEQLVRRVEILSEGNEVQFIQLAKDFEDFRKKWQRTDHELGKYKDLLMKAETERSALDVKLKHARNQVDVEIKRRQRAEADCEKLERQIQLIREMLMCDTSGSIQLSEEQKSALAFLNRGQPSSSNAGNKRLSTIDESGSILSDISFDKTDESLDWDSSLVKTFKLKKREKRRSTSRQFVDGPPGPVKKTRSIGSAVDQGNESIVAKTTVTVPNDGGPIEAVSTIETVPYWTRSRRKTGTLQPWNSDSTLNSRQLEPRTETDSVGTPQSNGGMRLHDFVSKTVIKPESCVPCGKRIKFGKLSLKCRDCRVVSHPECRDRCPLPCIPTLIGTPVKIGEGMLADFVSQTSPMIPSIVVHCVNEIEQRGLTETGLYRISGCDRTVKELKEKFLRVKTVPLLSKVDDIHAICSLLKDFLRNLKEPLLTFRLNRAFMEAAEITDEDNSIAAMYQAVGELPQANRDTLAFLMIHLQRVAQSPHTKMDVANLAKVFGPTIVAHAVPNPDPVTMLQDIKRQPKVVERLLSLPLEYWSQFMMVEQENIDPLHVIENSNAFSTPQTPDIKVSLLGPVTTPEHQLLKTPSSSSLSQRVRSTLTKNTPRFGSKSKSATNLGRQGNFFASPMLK
# Cytochrome P450 2D6 = Cytochrome P450 2D6 (Homo sapiens, UniProt P10635);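 also: CYP2D6 member of a cytochrome P450 panel assay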
# Chain of Cytochrome P450 2D6 (P10635 whole entry): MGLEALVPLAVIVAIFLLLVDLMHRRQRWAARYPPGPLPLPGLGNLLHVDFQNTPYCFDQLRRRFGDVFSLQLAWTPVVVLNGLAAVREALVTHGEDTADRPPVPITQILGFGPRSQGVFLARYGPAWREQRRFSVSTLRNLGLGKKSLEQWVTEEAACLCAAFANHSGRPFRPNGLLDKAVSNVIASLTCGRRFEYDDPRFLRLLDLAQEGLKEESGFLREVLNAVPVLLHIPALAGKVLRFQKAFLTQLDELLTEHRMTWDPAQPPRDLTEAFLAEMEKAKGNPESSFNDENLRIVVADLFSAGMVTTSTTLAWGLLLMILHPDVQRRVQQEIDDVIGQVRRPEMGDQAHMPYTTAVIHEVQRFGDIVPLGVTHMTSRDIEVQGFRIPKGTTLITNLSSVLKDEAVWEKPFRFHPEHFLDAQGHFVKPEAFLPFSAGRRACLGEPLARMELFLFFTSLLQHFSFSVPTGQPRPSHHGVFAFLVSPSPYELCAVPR
structure (smiles),measurement,setting,value
Cc1cccc(NC(=O)c2cccc(N3C(=O)C4C5CCC(C5)C4C3=O)c2)c1C (stereo unspecified),AC50,Cytochrome P450 1A2,25.1 µM (inconclusive)
same,AC50,Cytochrome P450 2C9,22.4 µM (inconclusive)
COc1ccc(C2(CNC(=O)/C=C/c3ccco3)CCCC2)cc1OC,AC50,Cytochrome P450 1A2,22.4 µM (inconclusive)
same,AC50,Cytochrome P450 2C9,10 µM (inconclusive)
CCOc1cc2c(cc1/C=C(/C#N)c1ccc(C(=O)O)cc1)OCO2,EC50,[1],> 300 µM (not active)
same,EC50,[2],> 300 µM (not active)
CCCC(C)C(=O)NCc1ccccc1OC (stereo unspecified),IC50,Protein skinhead-1,> 100 µM (inactive)
N#CC1=C(N)n2c(s/c(=C\c3cccs3)c2=O)=C(C#N)C1c1cccs1 (stereo unspecified),AC50,[3],5.68 µM (active)
Cc1cccc(C(=O)N(Cc2cccs2)C2CCS(=O)(=O)C2)c1 (stereo unspecified),IC50,Protein skinhead-1,> 100 µM (inactive)
O=S1(=O)C=C(Oc2ccc3ccccc3c2)c2ccccc21,IC50,Protein skinhead-1,> 100 µM (inactive)
Cc1cc(O)c(C(C)C)cc1NC(=O)Nc1ccc([N+](=O)[O-])cc1,IC50,Protein skinhead-1,68.4 µM (inactive)
COc1ccc(-c2nnn(CC(=O)N(CC(=O)NCCC(C)C)Cc3cccs3)n2)cc1OC,AC50,Cytochrome P450 1A2,31.6 µM (inconclusive)
same,AC50,Cytochrome P450 2C9,7.08 µM (inconclusive)
COc1cc(/C=N/NC(=O)c2cccc([N+](=O)[O-])c2)cc(OC)c1O,AC50,[3],2.04 µM (active)
O=C(N/N=C/c1ccc2nccnc2c1)c1ccccc1O,EC50,[4],48.8 µM (active)
same,EC50,H4,44.2 µM (active)
CCOC(=O)c1c(NC(=O)CCC(=O)N2CCOCC2)sc2c1CC(C)(C)OC2,AC50,Cytochrome P450 2C19,0.224 µM (inconclusive)
same,AC50,Cytochrome P450 1A2,15.8 µM (inconclusive)
same,AC50,Cytochrome P450 2C9,0.00562 µM (inconclusive)
Cc1ccc2c(c1)c(C)c(C)n2CC(O)CN1CCOCC1 (stereo unspecified),IC50,Protein skinhead-1,> 100 µM (inactive)
COc1cccc(N/N=C/c2cccc(Br)c2O)c1,EC50,[5],12.5 µM (active)
same,EC50,Streptokinase A,19.6 µM (active)
same,EC50,[6],3.27 µM (active)
same,EC50,[7],> 60 µM (not active)
same,EC50,Streptococcus,> 150 µM (not active)
same,AC50,[3],1.67 µM (active)
Cn1cnc2cc(NCc3ccc(Cl)cc3)ccc21,AC50,[3],5.49 µM (active)
O=C(Nc1nccs1)c1ccc(-c2ccc([N+](=O)[O-])cc2)o1,EC50,[1],12.3 µM (inconclusive)
same,EC50,[2],6.66 µM (active)
CCc1ccc(CNc2ccc(N3CCN(C(C)=O)CC3)cc2)cc1,AC50,[3],0.445 µM (active)
same,IC50,[8],9.44 µM (active)
Cc1ccc(-c2nc(N/N=C/c3ccccc3[N+](=O)[O-])c3ccccc3n2)cc1,EC50,H4,0.595 µM (active)
CCN(CC)c1ccc(NC(=O)CN2CCN(c3ccccn3)CC2)cc1,AC50,[3],0.384 µM (active)
same,IC50,[8],131 µM (active)
Cc1ccc(NC(=O)CCOc2ccccc2)cc1,EC50,[4],92.6 µM (active)
same,EC50,H4,> 120 µM (not active)
COC(=O)[C@H](Cc1ccccc1)NC(=O)N1CCN(c2ccccc2)CC1,AC50,[3],6.26 µM (active)
CCC(C)Nc1nc2c(c(=O)n(C)c(=O)n2C)n1Cc1cccc(C)c1 (stereo unspecified),AC50,[3],8.61 µM (active)
CCOC(=O)CSc1nc2ccccc2c(=O)n1CCN1CCOCC1,IC50,Protein skinhead-1,> 100 µM (inactive)
O=C(c1ccco1)N1CCC2(CCCN(C(c3ccccc3)c3ccccc3)C2)CC1,AC50,Cytochrome P450 2C19,39.8 µM (inconclusive)
same,AC50,Cytochrome P450 1A2,15.8 µM (inconclusive)
COc1cc(C)cc2c(-c3c(O)cc(O)c4c3C[C@H](C)N[C@@H]4C)cc(-c3cc(-c4c(O)cc(O)c5c4C[C@H](C)N[C@@H]5C)c4cc(C)cc(OC)c4c3O)c(O)c12,AC50,Cytochrome P450 2D6,5.01 µM (inconclusive)
same,AC50,Cytochrome P450 1A2,0.2 µM (inconclusive)
O=C(c1cc(COc2ccc(F)cc2Cl)on1)N1CCCCCC1,IC50,Protein skinhead-1,> 100 µM (inactive)
COc1cccc(-c2cccc(NC(=O)C3CCN(CC4CCOC4)CC3)c2)c1 (stereo unspecified),IC50,Protein skinhead-1,> 100 µM (inactive)
COc1ccc(N2CCN(C(=O)Cc3cccs3)CC2)cc1,AC50,[3],2.36 µM (active)
O=C(CN1CCN(S(=O)(=O)c2ccc(F)cc2)CC1)Nc1ccc2c(c1)OCO2,AC50,Cytochrome P450 2C19,3.98 µM (inconclusive)
same,AC50,Cytochrome P450 2D6,5.01 µM (inconclusive)
same,AC50,Cytochrome P450 1A2,25.1 µM (inconclusive)
same,AC50,Cytochrome P450 2C9,11.2 µM (inconclusive)
CC(NC(=O)c1ccc(N2CCCC2)c([N+](=O)[O-])c1)c1ccc(S(N)(=O)=O)cc1 (stereo unspecified),AC50,[3],3.51 µM (active)
